{"source": "a melting point compilation (Tetko et al.; mined from patent text by program, amines drawn as free bases though some values may be those of a salt)"}
{"units": {"melting point": "°C"}}
{"smiles": "CCCCCS(=O)(=O)NC(=O)/C=C/c1ccc(OCCOC)cc1Oc1ncc(Br)cc1C", "melting point": 160}
{"smiles": "N#Cc1cc(C2=Nc3ccc(-c4ccc(F)cc4F)cc3NC(=O)C2)ccn1", "melting point": "250 to 253"}
{"smiles": "NC(=O)N1c2ccccc2C=C(Cl)c2ccccc21", "melting point": "183 to 185"}
{"smiles": "CN(C)C(=O)OC1CCN(c2ncc(-c3ccccc3Cl)cn2)CC1", "melting point": "86 to 88"}
{"smiles": "COc1ccc(C(=O)N[C@@H](Cc2c[nH]c3ccccc23)C(=O)O)cc1", "melting point": "63 to 65"}
{"smiles": "COc1ccc2c(c1)C(=O)C(=CCC(=O)OC(C)(C)C)CC2", "melting point": 76}
{"smiles": "COC1=C(OC)C(=O)C(Cl)=C(C)C1=O", "melting point": "66 to 68"}
{"smiles": "CC(C)N1CC[C@@H](Oc2ccc(-n3ccc(OCc4ccc(Cl)cn4)cc3=O)cc2)C1", "melting point": "154 to 155"}
{"smiles": "CCCCCCCc1nnc(-c2ccc(O)cc2)s1", "melting point": 100}
{"smiles": "COc1ccc(CS(=O)(=O)Cc2ccc(OC)cc2OC)c(OC)c1", "melting point": "104 to 106"}
{"smiles": "O=C(OCc1ccccc1)c1cc2c(=O)n(Cc3ccccc3)c(=O)[nH]c2s1", "melting point": "195 to 197"}
{"smiles": "O=Cc1c[nH]c(-c2cccs2)c1", "melting point": "198 to 199"}
{"smiles": "Cc1c(O)ccc2c(-c3ccccc3F)noc12", "melting point": "216 to 219"}
{"smiles": "O=C(Nc1ccccc1)OC1CCN(C(=O)c2ccc(F)cc2)C1", "note": "(stereo not given)", "melting point": "173 to 175"}
{"smiles": "CC(=O)O[C@H]1C[C@@H](n2ncc(Cl)c(Cl)c2=O)[C@H](O)[C@@H]1O", "note": "(racemic)", "melting point": "119 to 122"}
{"smiles": "CCS(=O)(=O)Nc1ccc(Cc2ccc(NC3=NCCN3)cc2)cc1", "melting point": 178}
{"smiles": "Cn1cnnc1NCCCOc1cccc(CN2CCCCC2)c1", "melting point": "118 to 119"}
{"smiles": "NCCNc1ncc2ncnc(Nc3ccc(F)c(Cl)c3)c2n1", "melting point": "173 to 175"}
{"smiles": "Cc1cccc(OCCCN2CCC(C(O)(c3ccc(F)cc3)c3ccc(F)cc3)CC2)c1", "melting point": "112 to 114"}
{"smiles": "CN1CCN(Cc2ccc(-c3cccc(-c4cncc(C#N)c4Nc4ccc5[nH]ccc5c4)c3)s2)CC1", "melting point": "120 to 123"}
{"smiles": "CNC(=O)c1cc2c(nc(C)n2C)c2c1CCC(OC)(c1ccccc1)O2", "note": "(stereo not given)", "melting point": "237 to 239"}
{"smiles": "Nc1c(-c2cc(Cl)ccc2O)c2cc(Cl)c(C(F)(F)F)cc2[nH]c1=O", "melting point": "245 to 246"}
{"smiles": "CCOc1csc(C)c1C1OC(=O)NC1=O", "note": "(stereo not given)", "melting point": "136 to 138"}
{"smiles": "C#CCOc1cc(-c2ncnc(C(F)F)c2Cl)c(F)cc1Cl", "melting point": "93 to 95"}
{"smiles": "CCCCCCCCCCCCCCCCCCNC(=O)OC[C@H]1CC[C@@H](CO)O1", "note": "(relative stereo)", "melting point": "79 to 80"}
{"smiles": "CC(=NNC(=N)N)c1sc(-c2ccc(C(C)(C)C)cc2)nc1C", "melting point": "252 to 253"}
{"smiles": "Cn1nc(-c2ccc(F)cc2)c(-c2ccncc2)c1CCCc1ccc(N)cc1", "melting point": "80.5 to 81.1"}
{"smiles": "COc1cc(C(=O)O)ccc1OCc1nc(-c2ccccc2)oc1C", "melting point": "219 to 220"}
{"smiles": "COC(C)(C)C(C#N)=NO", "melting point": "102 to 104"}
{"smiles": "CC(CCn1c(=O)[nH]c2cc(F)ccc21)N1CCN(c2ccc(F)cc2)CC1", "note": "(stereo not given)", "melting point": "188 to 193"}
{"smiles": "COc1cc(-c2ccc(-c3ccc(N)c(OC)c3)o2)ccc1N", "melting point": "188 to 190"}
{"smiles": "CC1(C)Cc2ccoc2C(=O)N1", "melting point": "133 to 134"}
{"smiles": "CCOc1c(OC)cc(C(=O)NN=C2CCCC2=Cc2ccccc2)cc1OC", "melting point": "239 to 240"}
{"smiles": "CCOC(=O)Cc1ccc(NC(=O)C(COc2ccc(Cl)cc2)NS(=O)(=O)c2ccc(Br)cc2)cc1", "note": "(racemic)", "melting point": "154 to 156"}
{"smiles": "COC(=O)c1ccc(/C=C/c2nc(-c3ccccc3)oc2C)cc1", "melting point": "164 to 165"}
{"smiles": "N=C(CC1=CCC=CC1)N1C[C@@H]2C(=O)CCC(c3ccccc3)(c3ccccc3)[C@@H]2C1", "note": "(racemic)", "melting point": 190}
{"smiles": "COc1ccc(-c2nc(-c3cccs3)c[nH]2)cc1Cl", "melting point": "82 to 85"}
{"smiles": "COCCOc1cc2ncc(C#N)c(Nc3cc(OC)c(Cl)cc3Cl)c2cc1OC", "melting point": "210 to 212"}
{"smiles": "NC(=O)c1cc(F)cc(-c2cccc3cc(Cc4cccc(C(F)(F)F)c4)sc23)c1", "melting point": "165 to 166"}
{"smiles": "CCc1ccc2c(-c3cnc4[nH]cc(C(=O)N[C@H](C)C(=O)N5CC(C#N)C5)c4n3)nn(C)c2c1", "melting point": "185 to 190"}
{"smiles": "O=C(/C=C/c1ccc(NS(=O)(=O)c2ccc(-c3ccccc3)cc2)cc1)NO", "melting point": "190 to 192"}
{"smiles": "O=C(Nc1cccc(-c2ccccc2)c1)Nc1cccc2[nH]ccc12", "melting point": "213 to 215"}
{"smiles": "Cc1ccc(Cc2cnc(NCCCNc3cccc(C)n3)[nH]c2=O)cn1", "melting point": "113 to 120"}
{"smiles": "CCC(Oc1ccc(CCC(=O)c2ccc(-c3ccc(C(F)(F)F)cc3)s2)c(Cl)c1Cl)C(=O)O", "note": "(stereo not given)", "melting point": "169 to 171"}
{"smiles": "CCCN(CCCCNC(=O)NC1Cc2ccccc2C1)C1CCc2ncsc2C1", "note": "(stereo not given)", "melting point": 93}
{"smiles": "CN(C(C(=O)NO)C(C)(C)CN1C(=O)c2ccccc2C1=O)S(=O)(=O)c1ccc(Oc2ccccc2)cc1", "note": "(stereo not given)", "melting point": "189 to 190"}
{"smiles": "CC(=O)c1nc2ccc(OCC(F)(F)C(F)(F)C(F)(F)C(F)F)cc2cc1O", "melting point": "69 to 71"}
{"smiles": "O=C(O)CN1C(=O)C(=Cc2cc(OCc3ccccc3)c(OCc3ccccc3)c(OCc3ccccc3)c2)SC1=S", "melting point": "213 to 216"}
{"smiles": "O=[N+]([O-])c1cccc2c1COCO2", "melting point": "76 to 77"}
{"smiles": "CCCN(Cc1cccc(-c2noc(C)n2)c1)C(=O)Cc1ccc(-c2ccccc2S(=O)(=O)NC(C)(C)C)cc1", "melting point": "132 to 133"}
{"smiles": "CC1CSC2=CC=NC3=CC=CC(c4ccccc4)C321", "note": "(stereo not given)", "melting point": 164}
{"smiles": "Cc1csc(-c2cc(=O)n(C)c3ccc(C(O)(c4ccc(Cl)cc4)c4cncn4C)cc23)n1", "note": "(stereo not given)", "melting point": 200}
{"smiles": "NCc1cccc(Cn2ccc(OCc3ccc(F)cc3)c(Br)c2=O)c1", "melting point": "127 to 139"}
{"smiles": "CN(C)C1CCN(C(=O)c2ccc(-c3[nH]nc4c3C(=O)c3c(NC(=O)NN5CCOCC5)cccc3-4)s2)C1", "note": "(stereo not given)", "melting point": "216 to 217"}
{"smiles": "O=C(NCCc1ccccn1)c1ccccc1-c1ccccc1CN1C(=O)c2ccccc2C1=O", "melting point": 155}
{"smiles": "Cc1nc2cc(Br)ccc2s1", "melting point": "84 to 85"}
{"smiles": "CC(C)OC(=O)C1CCCN1S(=O)(=O)c1ccc(N2CCC(NCC(O)c3ccc(O)c(NS(C)(=O)=O)c3)CC2)cc1", "note": "(stereo not given)", "melting point": "52 to 58"}
{"smiles": "Cn1cc(C(=O)NCc2ccc(Cl)cc2)c(=O)c2cc(CN3CC=C(F)CC3)ccc21", "melting point": "221 to 223"}
{"smiles": "CCC(=O)Nc1c([N+](=O)[O-])cnn1-c1ccc(Cl)c(Cl)c1Cl", "melting point": "79 to 81"}
{"smiles": "CC(=O)NNc1ccnc2c(NC(=O)c3c(Cl)cccc3Cl)cc(C)c(C)c12", "melting point": "> 250"}
{"smiles": "CCn1c2ccccc2c2cc(C(C#N)=C(C#N)c3cc(C(F)(F)F)cc(C(F)(F)F)c3)ccc21", "melting point": "180 to 182"}
{"smiles": "O=C(Cn1c(=O)c(=O)[nH]c2cc([N+](=O)[O-])c(-n3cccc3)cc21)Nc1ccccc1", "melting point": "> 300"}
{"smiles": "CNC(=O)Nc1cc(NC(=O)/C=C/c2ccc(C(C)(C)C)cc2)ccc1Cl", "melting point": "120 to 122"}
{"smiles": "N=C(N)N(Cc1ccccc1)c1ccc2c3c(cccc13)CC2", "melting point": "138 to 140"}
{"smiles": "CCCCCc1ccc(-c2ccc(F)cc2)nc1", "melting point": 27}
{"smiles": "CCCn1cc(Cc2ccc(C(=O)NS(=O)(=O)c3ccccc3C)cc2OC)c2cc(CCNC(=O)N3CCOCC3)ccc21", "melting point": "117 to 123"}
{"smiles": "COc1ccc(Br)c(C(=O)N2CCN(S(=O)(=O)c3ccc(Br)cc3)CC2)c1", "melting point": 180}
{"smiles": "CCc1nc(=O)c2cc3ccccc3nc2[nH]1", "melting point": "240 to 245"}
{"smiles": "CCCCCCCN(CCO)c1ccc2c(c1)Oc1cc(=C(C#N)C#N)c3ccccc3c1=N2", "melting point": "155 to 157"}
{"smiles": "CCOC(=O)c1c(-c2ccc(OC)cc2)c2oc3ccc(-c4ccccc4)cc3c2n(Cc2cc(OC)ccc2OC)c1=O", "melting point": 216}
{"smiles": "Cc1ccc2c(c1)C(C(=O)Nc1c(Br)cccc1Br)c1ccccc1CO2", "note": "(stereo not given)", "melting point": 184}
{"smiles": "CCOC(=O)c1c(C)[nH]c2ccccc12", "melting point": "96 to 98"}
{"smiles": "O=C(OCc1ccccc1)c1ccc(O)c(CO)c1", "melting point": "109 to 110"}
{"smiles": "CCn1cc(C(=O)O)c(=O)c2cc(F)c(N3CCOC(CNC=O)C3)c(F)c21", "note": "(stereo not given)", "melting point": "234 to 236"}
{"smiles": "O=C1c2ccc(Cl)cc2C(=O)N1c1ccc(Cl)cc1OC(F)(F)F", "melting point": "156 to 157"}
{"smiles": "Nc1ncc2c(n1)CCC(NC(=O)[C@@H]1CCCN1C(=O)[C@@H](Cc1ccccc1)NS(=O)(=O)Cc1ccccc1)C2", "note": "(stereo not given in full)", "melting point": "117 to 120"}
{"smiles": "CCCCCN(CCC12CC3CC(CC(C3)C1)C2)C(=O)NCc1ccncc1", "melting point": "96.5 to 108"}
{"smiles": "CC(=O)C(=NO)c1ccc(F)cc1F", "melting point": "126 to 129"}
{"smiles": "CCOC(=O)c1cn(Cc2ccccc2)nc1OCc1ccc(OCc2nc(-c3ccco3)oc2C)c(Br)c1", "melting point": "158 to 159"}
{"smiles": "CCCNc1c(C#N)cnn1-c1ccc(OC(F)(F)F)cc1Cl", "melting point": 63}
{"smiles": "CON1CCC2(CC1)OC(=O)C(c1cc(C)ccc1C)=C2O", "melting point": "205 to 208"}
{"smiles": "CCOC(=O)c1cnc(Cl)nc1NCc1ccc(OC)c(Cl)c1", "melting point": "114 to 115"}
{"smiles": "CN1C(=O)C(=Cc2cc(C(C)(C)C)c(O)c(C(C)(C)C)c2)SC1O", "note": "(stereo not given)", "melting point": "165 to 170"}
{"smiles": "COc1ccnc(CCc2nc3cc(-c4ccc(S(=O)(=O)N5CCN(C(C)=O)CC5)cc4)cnc3[nH]2)c1", "melting point": "138 to 140"}
{"smiles": "CC(=O)NCC12CC(c3ccccc31)c1ccccc12", "melting point": "184 to 186"}
{"smiles": "COc1nccnc1C1(O)CN2CCC1CC2", "note": "(stereo not given)", "melting point": "130 to 131"}
{"smiles": "COc1ccc2oc3ccc(I)cc3c2c1C(=O)Nc1cccnc1", "melting point": "286 to 287"}
{"smiles": "CN(C)C=Nc1nc(Cl)c(N=CN(C)C)c(Cl)n1", "melting point": "116 to 119"}
{"smiles": "CN(N=Cc1ccc(C#N)cc1)C(=O)c1[nH]c2ccccc2c1-c1ccccc1", "melting point": "194 to 196"}
{"smiles": "CC1(CN)CCN(c2c(F)cc3c(=O)c(C(=O)O)cn(C4CC4)c3c2Cl)C1", "note": "(stereo not given)", "melting point": "189 to 191"}
{"smiles": "COc1ccc(F)cc1C(C)(C)CC(O)(Cn1cc(C)c(=O)c2ccccc21)C(F)(F)F", "note": "(stereo not given)", "melting point": "> 225"}
{"smiles": "CCCc1c(OCCCCCOc2ccccc2CCCCC(=O)O)ccc2c1OCCC2=O", "melting point": "75 to 76"}
{"smiles": "CC1(Cc2cccc(N)c2)Cc2ccccc2C1=O", "note": "(stereo not given)", "melting point": "95 to 98"}
{"smiles": "O=C(O)c1cn(C2CC2)c2c(C(F)(F)F)c(N3CCC(c4ccncc4)C3)c(F)cc2c1=O", "note": "(stereo not given)", "melting point": "244 to 245"}
{"smiles": "CC(C)OC(=O)c1cc(-n2c(=O)c(F)c(C(F)(F)F)n(C)c2=O)c(F)cc1Cl", "melting point": "66 to 68"}
